US20230031280A1, “GLP-2 FUSION POLYPEPTIDES AND USES FOR TREATING AND PREVENTING GASTROINTESTINAL CONDITIONS” (SHIRE-NPS PHARMACEUTICALS, INC., priority 2017, published 2023)
Where two headings read alike, the source gives them in different places.

What was measured:
[1] = molecular target: monomer/dimer self-association; test: Microscale thermophoresis (MST) monomer/dimer equilibrium; type: physicochemical
Description: (§1) Microscale thermophoresis (MST) and nano differential scanning fluorimetry (NanoDSF) were performed to characterize the dimer-monomer transition. MST was used to determine the monomer/dimer equilibrium dissociation constant Kd. MST is based on thermodriven diffusion of molecules while NanoDSF is based on Trp fluorescence and is commonly used for thermostability Tm.

[2] = molecular target: GLP-2-Fc self-association; test: NanoDSF at room temperature, monomer/dimer self-association; type: physicochemical
Description: as §1
In the NanoDSF assay, room temperature is used and one tryptophan in GLP-2 is targeted that potentially undergoes conformational changes during GLP-2-Fc self-association. Only the tryptophan fluorescence from the protein contributes to the signal. If tryptophan is buried or stable, the peak is at 330 nm and if the tryptophan is exposed or flexible, the peak is at 350 nm.

[3] = Cynomolgus monkey pharmacokinetic study; type: in vivo, cynomolgus monkeys; settings: subcutaneous, 12.5 nmol/kg
Description: Pharmacokinetics studies of teduglutide, GLP-2 Peptibody B and GLP-2 Peptibody K were formed in cynomolgus monkeys with citrulline assayed as a biomarker of GLP-2 concentration. In the study, 12.5 nmol/kg teduglutide was administered subcutaneously to a group of 6 male cynomolgus monkeys at day 1. Then for one set of 2 monkeys, 25 nmol/kg GLP-2 Peptibody B was administered intravenously at day 7, day 21, day 28, day 35, and day 42. For another set of 3 monkeys, 25 nmol/kg GLP-2 Peptibody B was administered subcutaneously at day 7, day 21, day 28, day 35, and day 42. For another set of monkeys, 5 nmol/kg GLP-2 Peptibody K was administered intravenously (2 monkeys) and subcutaneously (3 monkeys) at day 7, day 21, day 28, day 35, and day 42. For another set of monkeys, 25 nmol/kg GLP-2 Peptibody K was administered subcutaneously (3 monkeys) and intravenously (2 monkeys) at day 7, day 21, day 28, day 35, and day 42.

[4] = cited from earlier work
[5] = Mouse pharmacokinetics of GLP-2 peptibody K274; type: in vivo; settings: CD1 mice, Q3D over 14 days
Description: A pharmacokinetics analysis was performed in CD1 mice. […] Mice were divided into groups, with one group administered 0.45 mg/kg every three days (Q3D), another administered 1.5 mg/kg Q3D, another administered 4.5 mg/kg Q3D, and another administered 15 mg/kg Q3D over a 14 day period. After dosing was discontinued, concentrations were measured 3, 9, 14, and 21 days later.

[6] = Rat pharmacokinetic comparability with/without C-terminal lysine; type: in vivo, Sprague-Dawley rats; settings: 1 mg/kg, intravenous and subcutaneous
Description: 1 mg/kg of total GLP-2 peptibody K protein was administered subcutaneously to one group of six male Sprague-Dawley rats. 1 mg/kg of total GLP-2 peptibody K274 protein was administered intravenously to another group of six male Sprague-Dawley rats. 1 mg/kg of total GLP-2 peptibody B protein was administered subcutaneously to a third group of five male Sprague-Dawley rats. 1 mg/kg of total GLP-2 peptibody B264 protein was administered subcutaneously to a fourth group of five male Sprague-Dawley rats.
For all of the above groups, plasma samples were taken pre-dose, and at the following time points post-dose: 5 minutes (day 1), 10 minutes (day 1), 20 minutes (day 1), 30 minutes (day 1), 1 hour (day 1), 2 hours (day 1), 6 hours (day 1), 24 hours (day 2), 48 hours (day 3), 72 hours (day 4), 120 hours (day 6), 168 hours (day 8), 240 hours (day 11), and 336 hours (day 15).
Tables showing the pharmacokinetic data comparing intravenously administered GLP-2 peptibody K and GLP-2 peptibody K274 are in FIG. 10B. Tables showing the pharmacokinetic data comparing subcutaneously administered GLP-2 peptibody K and GL-2 peptibody K274 are in FIG. 10C.

CD-1 mice [7] = test: Pharmacodynamic plateau study (small intestine weight); type: in vivo; settings: female CD-1 mice
Description: Various doses of GLP-2 peptibody K274 were analyzed in female CD-1 mice to assess the pharmacodynamic plateau, with the primary endpoint a measurement of the small intestinal weight relative to the total body weight and a histology study of the length of villi. Eight groups of six females each were formed. In two groups, only the vehicle was administered Q3D for as a negative control. In four groups, the following doses were administered Q3D over 14 days: 0.45 mg/kg, 1.5 mg/kg, 4.5 mg/kg and 15 mg/kg. In one additional group, 4.5 mg/kg was administered Q3D for 14 days with the study ending four days later at day 18. In another additional group, 4.5 mg/kg was administered Q3D for 14 days with the study ending seven days later at day 21.
For the primary endpoint, the small intestine weight in grams is shown in FIG. 12A, the small intestine weight normalized to body weight is shown in FIG. 12B, and the colon weight normalized to body weight is shown in FIG. 12C. A dose of 4.5 mg/kg had maximum effect.
FIG. 13B is a graph depicting the percentage change in small intestine weight for both vehicle and GLP-2 peptibody K274.

CD-1 mice [8] = test: Histology study of villi length, washout period; type: in vivo, female CD-1 mice; settings: 4.5 mg/kg Q3D over 14 days, days 15, 18, 21
Description: Various doses of GLP-2 peptibody B264 were analyzed to assess the pharmacodynamic plateau, with the primary endpoint a measurement of the small intestinal weight relative to the total body weight and a histology study of the length of villi. 11 groups of six female CD-1 mice each were formed.
For histology, four micron paraffin sections were prepared for H&E and Ki67 IHC staining. After whole slide scanning, an imagescope was used to measure villi length and crypt depth, and to analyze Ki67. The antibody against Ki67 is a rabbit antibody sold by Adcam®, catalog number ab 616667. The antibody was used at a working concentration of 1:100 and was detected using a Leica® Refine Kit.
The first day after the washout period ends is day 15, the second day is day 16, etc. Day 2 of the washout period corresponds with day 15. Day 5 of the washout period corresponds with day 18. Day 8 of the washout period corresponds with day 21. D15, D18, and D21 correspond to days 15, 18 and 21 on which the villi length was measured.

mice = test: Fat (triglyceride) tolerance test with olive oil bolus; type: in vivo; settings: female mice, 4.5 mg/kg every 3 days for 13 days, olive oil bolus 10 mL/kg, vs vehicle
Description: A fat tolerance assay was performed in mice to assess the ability of GLP-2 peptibody K274 to promote absorption of dietary fats. Dietary fat is hydrolyzed into free fatty acids and glycerides, which are transported through the intestinal villi and absorbed by enterocytes. The enterocytes synthesize the triglycerides, which then enter the bloodstream. Such postprandial triglycerides peak in the bloodstream at about 3 hours after ingestion of a fat-rich meal.
It is hypothesized that GLP-2 peptibody K274, by enhancing length of the intestinal villi, would improve the absorption of fatty acids in a mouse model of short bowel syndrome. Assaying for an increase in peak postprandial triglycerides allows for detection of such increased absorption.
Female mice were divided into two groups of […] mice each. Both groups were treated every 3 days for a total of 13 days either with 4.5 mg/kg K274 peptibody (treated group) or vehicle (control group). On day 14 after start of treatment, mice in both groups were fasted for 6 hours followed by administration of an olive oil bolus of 10 mL/kg. Mice in the treated and control groups were divided into 6 subgroups of 6 animals each. […] Plasma triglyceride concentrations were measured on a Cobas C311 instrument (Roche) using the TRIGB assay kit.

Compound	Kd [1] [µM]	Kd [2] [µM]	Vc [3] [mL/kg]	association constant (ka) [3] [day⁻¹]	half-life ([4]; SBS patients) [h]	half-life ([4]; healthy patients)	CL/F [5] [mL/day/kg]	Vc [5] [mL/kg]	pharmacokinetic comparability of K and K274 [6]	persistence of increased small intestine weight normalized to body weight after dosing (CD-1 mice [7]; 4.5 mg/kg Q3D for 14 days, washout)	dose with maximum effect on small intestine / colon weight (CD-1 mice [7]; Q3D over 14 days) [mg/kg]	persistence of villi length during washout period (CD-1 mice [8])	postprandial triglyceride concentration in the bloodstream (mice)
CC[C@H](C)[C@H](NC(=O)[C@H](Cc1ccccc1)NC(=O)[C@H](CC(=O)O)NC(=O)[C@H](CCCNC(=N)N)NC(=O)[C@H](C)NC(=O)[C@H](C)NC(=O)[C@H](CC(C)C)NC(=O)[C@H](CC(N)=O)NC(=O)[C@H](CC(=O)O)NC(=O)[C@H](CC(C)C)NC(=O)[C@@H](NC(=O)[C@@H](NC(=O)[C@H](CC(N)=O)NC(=O)[C@H](CCSC)NC(=O)[C@H](CCC(=O)O)NC(=O)[C@H](CC(=O)O)NC(=O)[C@H](CO)NC(=O)[C@H](Cc1ccccc1)NC(=O)[C@H](CO)NC(=O)CNC(=O)[C@H](CC(=O)O)NC(=O)CNC(=O)[C@@H](N)Cc1c[nH]cn1)[C@@H](C)O)[C@@H](C)CC)C(=O)N[C@@H](CC(N)=O)C(=O)N[C@@H](Cc1c[nH]c2ccccc12)C(=O)N[C@@H](CC(C)C)C(=O)N[C@H](C(=O)N[C@@H](CCC(N)=O)C(=O)N[C@H](C(=O)N[C@@H](CCCCN)C(=O)N[C@H](C(=O)N[C@H](C(=O)N[C@@H](CC(=O)O)C(=O)O)[C@@H](C)O)[C@@H](C)CC)[C@@H](C)O)[C@@H](C)CC [teduglutide]	24 ± 3	77 ± 14	218	9.67	~1.3	approximately 2 hours	–	–	–	–	–	–	–
GLP-2 peptibody K274: GLP-2[A2G]-GGGGSGGGGSGGGGS linker-IgG1 Fc (LALA) without C-terminal lysine; SEQ ID NO: 7	–	–	–	–	–	–	81.3	213	identical from a pharmacokinetic point of view	persisted for at least five days after dosing	4.5	more persistence than does GLP-2 peptibody B264	significantly higher
